Assay results: patent publication US20260355332A1, “ANTIBODY-DRUG CONJUGATE, AND PREPARATION METHOD THEREFOR AND USE THEREOF” (MEDILINK THERAPEUTICS (SUZHOU) CO., LTD., priority 2022, published 2026)
Entries after “also recorded” stand apart in the source; their conditions may differ.

System: tumor cells
Assay: Assay 2: inhibitory activity of bioactive molecules on tumor cells (CCK8), overall
Type: cell-based
Conditions: Example 6.2; multiple tumor cell lines
Experimental: Firstly, tumor cells NUCG-4, PC-9, HT29, NCI-H358, KYSE520, A431, and A549 were cultured. The bioactive molecules or fragments of the present disclosure were co-cultured with the tumor cells, and then a CCK8 reagent (Dojindo China Co., Ltd., Cat: CKO4, Lot: JJ744) was added. Readings were taken using a microplate reader (manufacturer: Molecular Devices, model: SpectraMax M2) (detection wavelength: 450 nm) to determine the activity of dehydrogenase in the mitochondria, so as to evaluate the inhibitory effects of the bioactive molecules on cell proliferation.
The in vitro cell activity was assayed as follows: Tumor cells were digested by a conventional method using trypsin, collected in a tube, counted, resuspended in the corresponding assay medium (containing 2% FBS), and added to a 96-well plate at 5000-10000 cells/well. Bioactive molecules diluted with DMSO (starting at a concentration of 10 μM, with a 3-fold dilution (12 concentration gradients)) were added to the 96-well plate at 100 μL/well, and the plate was incubated at 37° C. with 5% CO2 for 3-4 days. Subsequently, 20 μL of CCK8 reagent was added to each well, and the mixture was allowed to react for 2-6 h. Readings were then taken using a microplate reader (detection wavelength: 450 nm).

| Compound | tumor cell-killing effect (in words) |
| --- | --- |
| CC[C@@]1(O)C(=O)OCc2c1cc1n(c2=O)Cc2c-1nc1cc3c(cc1c2CCCO)OCO3 [Example A1.9, (S)-7-ethyl-7-hydroxy-14-(3-hydroxypropyl)-10,13-dihydro-11H-[1,3]dioxolo[4,5-g]pyrano[3′,4′:6,7]indolizino[1,2-b]quinoline-8,11(7H)-dione] | had tumor cell-killing effects; also recorded: stronger tumor-killing effect than Dxd in multiple tumor cell lines |
| CC[C@@]1(O)C(=O)OCc2c1cc1n(c2=O)Cc2c-1nc1cc3c(cc1c2CCCOCNC(=O)CN)OCO3 [Example B1.14, (S)-2-amino-N-((3-(7-ethyl-7-hydroxy-8,11-dioxo-7,8,11,13-tetrahydro-10H-[1,3]dioxolo[4,5-g]pyrano[3′,4′:6,7]indolizino[1,2-b]quinolin-14-yl)propoxy)methyl)acetamide] | had tumor cell-killing effects |
